Measured values: ChEMBL document CHEMBL5576120, “Discovery and In Vivo Efficacy of AZ-PRMT5i-1, a Novel PRMT5 Inhibitor with High MTA Cooperativity” (J Med Chem, 2024)
≈ marks a conversion by molar mass, not a printed value.

Legend:
[1] = Intrinsic clearance in rat hepatocytes assessed per million cells; type: ADME, cell-based, Hepatocyte; settings: read-out: CLH
[2] = in vitro; settings: human, Caco-2
Description: Apparent permeability across apical to basal side of human Caco-2 cells at 10 uM

[3] = molecular target: PRMT5/MEP50 complex (Homo sapiens, UniProt O14744); assay: biochemical
Description: Inhibition of PRMT5 (1 to 637 residues)/MEP504 (2 to 342 residues)(unknown origin) expressed in baculovirus infected Sf21 insect cells using histone H4/SAM as substrate incubated for 5 hrs in presence of MTA by MTase Glo assay

[4] = physchem; settings: buffer, pH 7.4
Description: Lipophilicity, logD of compound at pH 7.4

[5] = tested on: HCT-116; assay: Cooperativity fold, ratio of IC50 for PRMT5 in human HCT-116 cells expressing wild-type MTAP assessed as decrease in SMDA level to IC50 for PRMT5 in human HCT-116 cells with MTAP KO assessed as decrease in SMDA level; type: cell-based
[6] = molecular target: Protein arginine N-methyltransferase 5 (Homo sapiens, UniProt O14744)
Description: Inhibition of PRMT5 in human HCT-116 cells with MTAP KO assessed as decrease in SMDA level incubated for 48 hrs by immunofluorescence analysis

[7] = physchem; settings: phosphate buffer, pH 7.4
[8] = Oral bioavailability at steady state in Wistar Han rat at 1 mg/kg; type: ADME, organism-based; settings: in vivo
[9] = Volume of distribution at steady state in Wistar Han rat at 1 mg/kg, po or 0.5 mg/kg, iv; type: ADME, organism-based; settings: in vivo
[10] = Half life in Wistar Han rat at 1 mg/kg, po or 0.5 mg/kg, iv; type: ADME, organism-based; settings: in vivo
[11] = Intrinsic clearance in human hepatocytes assessed per million cells; type: ADME, cell-based, Hepatocyte; settings: read-out: CLH

Sequence of Protein arginine N-methyltransferase 5 (O14744 whole entry): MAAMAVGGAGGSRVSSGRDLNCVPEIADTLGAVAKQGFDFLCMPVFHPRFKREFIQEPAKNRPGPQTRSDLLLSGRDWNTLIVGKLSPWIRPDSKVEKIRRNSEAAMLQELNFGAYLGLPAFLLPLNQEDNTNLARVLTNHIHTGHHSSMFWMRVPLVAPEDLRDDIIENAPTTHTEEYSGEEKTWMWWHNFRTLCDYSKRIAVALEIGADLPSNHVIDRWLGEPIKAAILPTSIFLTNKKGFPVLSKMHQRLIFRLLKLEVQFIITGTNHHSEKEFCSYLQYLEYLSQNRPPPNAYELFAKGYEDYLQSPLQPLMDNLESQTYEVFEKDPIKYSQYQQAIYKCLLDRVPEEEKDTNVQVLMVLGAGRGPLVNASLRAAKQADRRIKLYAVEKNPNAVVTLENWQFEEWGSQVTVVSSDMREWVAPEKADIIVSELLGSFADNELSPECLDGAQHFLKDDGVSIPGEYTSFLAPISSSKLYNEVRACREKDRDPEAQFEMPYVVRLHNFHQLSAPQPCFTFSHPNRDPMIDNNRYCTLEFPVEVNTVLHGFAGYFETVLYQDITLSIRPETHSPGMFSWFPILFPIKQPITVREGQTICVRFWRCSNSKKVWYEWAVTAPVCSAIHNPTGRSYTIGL
Sequence of PRMT5/MEP50 complex (O14744 whole entry): as above
Sequence of PRMT5/MEP50 complex (Q9BQA1 whole entry, further chain): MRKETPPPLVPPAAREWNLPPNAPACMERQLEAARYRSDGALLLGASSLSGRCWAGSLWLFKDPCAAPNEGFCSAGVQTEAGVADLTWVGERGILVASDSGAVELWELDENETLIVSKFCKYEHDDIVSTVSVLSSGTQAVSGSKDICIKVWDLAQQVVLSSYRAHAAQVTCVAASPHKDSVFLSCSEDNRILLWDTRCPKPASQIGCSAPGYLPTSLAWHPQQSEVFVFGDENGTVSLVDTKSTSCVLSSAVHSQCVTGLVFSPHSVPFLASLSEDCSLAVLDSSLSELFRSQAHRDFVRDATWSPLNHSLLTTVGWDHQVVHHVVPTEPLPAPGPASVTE

SMILES | hepatocyte CLint [1] | Papp A→B at 10 µM [2] | IC50 [3] | logD [4] | Ratio IC50 [5] | IC50 [6] | solubility at 24 h [7] | bioavailability [8] | Vdss [9] | half-life [10] | hepatocyte CLint [11]
Nc1ccc2cc(CN3C(=O)c4cc(F)ccc4[C@]34CCN(Cc3ccc(F)cc3)C4=O)[nH]c2n1 | 12 µL/min/1e6 cells | 31 ×10⁻⁶ cm/s | 9 nM | 2.5 | 31 | 140 nM |  |  |  |  | 
CN(Cc1ccc(F)cc1)C(=O)C1c2ccccc2C(=O)N1Cc1cnc(NC(=N)N)s1 (stereo not given) | 84 µL/min/1e6 cells |  |  | 2 |  |  |  |  |  |  | 
Nc1cc(C(F)F)c2[nH]c(CN3C(=O)c4cc(F)ccc4[C@]34CCN(Cc3ccc(F)cc3)C4=O)cc2n1 | 15 µL/min/1e6 cells | 56 ×10⁻⁶ cm/s |  | 2.9 |  |  | 86 µM (≈ 45 µg/mL) |  |  |  | 
Nc1ccc2oc(CN3C(=O)c4cc(F)ccc4[C@]34CCN(Cc3ccc(F)cc3)C4=O)cc2n1 | 59 µL/min/1e6 cells | 72 ×10⁻⁶ cm/s |  | 2.3 |  |  | 243 µM (≈ 115 µg/mL) |  |  |  | 
O=C1c2cc(F)ccc2[C@]2(CCN(Cc3ccc(F)cc3)C2=O)N1Cc1cc2cccnc2[nH]1 | 193 µL/min/1e6 cells | 29 ×10⁻⁶ cm/s |  | 3.4 |  |  |  |  |  |  | 
CNC(=N)Nc1ncc(CN2C(=O)c3cc(F)ccc3C2C(=O)NCc2ccc(F)cc2)s1 (stereo not given) | 19 µL/min/1e6 cells | 14 ×10⁻⁶ cm/s |  | 2.7 |  |  | 8 µM (≈ 3.76 µg/mL) | 20% | 2.6 L/kg | 42.6 min | 
Nc1ccc2[nH]c(CN3C(=O)c4cc(F)ccc4[C@]34CCN(Cc3ccc(F)cc3)C4=O)nc2n1 | 5 µL/min/1e6 cells |  |  |  |  | 1300 nM |  |  |  |  | < 1 µL/min/1e6 cells
N=C(N)Nc1nnc(CN2C(=O)c3ccccc3C2C(=O)NCc2ccc(F)cc2)s1 (stereo not given) | 23 µL/min/1e6 cells |  |  | 1.7 |  |  |  |  |  |  | 
Cn1c(CN2C(=O)c3cc(F)ccc3[C@]23CCN(Cc2ccc(F)cc2)C3=O)cc2nc(N)ccc21 | 21 µL/min/1e6 cells |  |  | 2.2 | > 5 | 4800 nM | 110 µM (≈ 53.6 µg/mL) |  |  |  | 
O=C(NCc1ccc(F)cc1)C1c2ccccc2C(=O)N1Cc1cc2ncccc2[nH]1 (stereo not given) | 70 µL/min/1e6 cells |  |  | 3 |  |  |  |  |  |  | 
O=C1c2cc(F)ccc2[C@]2(CCN(Cc3ccc(F)cc3)C2=O)N1Cc1cc2cnccc2[nH]1 | 3 µL/min/1e6 cells |  | 970 nM | 2.4 |  | > 30000 nM |  |  |  |  | 
COc1cc(N)nc2cc(CN3C(=O)c4cc(F)ccc4[C@]34CCN(Cc3ccc(F)cc3)C4=O)[nH]c12 | 7 µL/min/1e6 cells | 1.4 ×10⁻⁶ cm/s |  | 1.8 | 7.2 | 4 nM | 610 µM (≈ 307 µg/mL) |  |  |  | 
N=C(N)Nc1ncc(CN2C(=O)c3cc(F)ccc3C2C(=O)NCc2ccc(F)cc2)s1 (stereo not given) | 13 µL/min/1e6 cells |  |  | 2.5 |  |  |  |  |  |  | 
O=C1c2cc(F)ccc2[C@]2(CCN(Cc3ccc(F)cc3)C2=O)N1Cc1cc2ccncc2[nH]1 | 6 µL/min/1e6 cells |  | 370 nM | 2.8 | > 5 | 6400 nM |  |  |  |  | 
